The record followed here is ChEMBL document CHEMBL1909046, “DrugMatrix in vitro pharmacology data”.

pIC50, pKi: −log10 of the molar value.

One may read the pIC50 as the negative decadic logarithm of the IC50, by convention in mol/L. For orientation: pKi means the negative decadic logarithm of the Ki, by convention in mol/L.

Data set [1] concerns the target 5-hydroxytryptamine receptor 1B (Rattus norvegicus, UniProt P28564). It is filed as cell membranes, Wistar, Cerebral cortex, Membrane. The settings on record: for pIC50: read-out: IC50; for pKi: read-out: Ki. On all read-outs here: in other assays of this panel Not Active means under 50% inhibition at 10 µM.
Data set [2] concerns the target T1, Muscarinic acetylcholine receptor M5 (Homo sapiens, UniProt P08912). Further: in other assays of this panel Not Active means under 50% inhibition at 10 µM.
T1 sequence (P08912 whole entry): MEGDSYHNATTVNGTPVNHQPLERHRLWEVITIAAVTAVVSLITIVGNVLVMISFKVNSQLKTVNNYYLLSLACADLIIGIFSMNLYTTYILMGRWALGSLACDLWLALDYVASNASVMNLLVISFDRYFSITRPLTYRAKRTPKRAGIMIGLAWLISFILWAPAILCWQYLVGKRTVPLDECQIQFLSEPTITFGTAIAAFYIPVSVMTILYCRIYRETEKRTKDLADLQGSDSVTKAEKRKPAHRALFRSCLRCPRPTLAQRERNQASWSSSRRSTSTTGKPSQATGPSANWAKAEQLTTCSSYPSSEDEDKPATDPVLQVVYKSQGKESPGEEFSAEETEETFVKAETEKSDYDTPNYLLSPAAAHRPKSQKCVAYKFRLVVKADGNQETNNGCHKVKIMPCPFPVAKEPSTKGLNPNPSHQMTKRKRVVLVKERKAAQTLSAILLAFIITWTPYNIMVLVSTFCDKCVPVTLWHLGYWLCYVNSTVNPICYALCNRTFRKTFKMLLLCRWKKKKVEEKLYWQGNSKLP
It is filed as cell membranes, Membrane. The settings on record: cho-k1.

The target of a further data set is Cytochrome P450 2C19 (Homo sapiens, UniProt P33261). The settings on record: bti-tn-5b1-4. Further: in other assays of this panel Not Active means under 50% inhibition at 10 µM.
Data set [3] has as its target 5-hydroxytryptamine receptor 2B (Homo sapiens, UniProt P41595). It is filed as cell membranes, CHO-K1, Membrane. To be noted: for IC50: cho-k1. On all read-outs here: in other assays of this panel Not Active means under 50% inhibition at 10 µM.
The nature of data set [4]: DRUGMATRIX: Platelet-Derived Growth Factor (PDGF) radioligand binding (ligand: [125I] PDGF). Type of data set: cell-based. To be noted: nih3t3; Not Active = under 50% inhibition at 10 µM.
Data set [5] can be described thus: DRUGMATRIX: Sodium/nucleoside co-transporter radioligand binding (ligand: nitrobenzylthioinosine). Type of data set: cell membranes, Cavia porcellus, Dunkin-Hartley, Cerebral cortex, Membrane. The settings on record: Not Active = under 50% inhibition at 10 µM.
For another data set, the target named is T2, Interstitial collagenase (Homo sapiens, UniProt P03956).
T2 sequence (P03956 whole entry): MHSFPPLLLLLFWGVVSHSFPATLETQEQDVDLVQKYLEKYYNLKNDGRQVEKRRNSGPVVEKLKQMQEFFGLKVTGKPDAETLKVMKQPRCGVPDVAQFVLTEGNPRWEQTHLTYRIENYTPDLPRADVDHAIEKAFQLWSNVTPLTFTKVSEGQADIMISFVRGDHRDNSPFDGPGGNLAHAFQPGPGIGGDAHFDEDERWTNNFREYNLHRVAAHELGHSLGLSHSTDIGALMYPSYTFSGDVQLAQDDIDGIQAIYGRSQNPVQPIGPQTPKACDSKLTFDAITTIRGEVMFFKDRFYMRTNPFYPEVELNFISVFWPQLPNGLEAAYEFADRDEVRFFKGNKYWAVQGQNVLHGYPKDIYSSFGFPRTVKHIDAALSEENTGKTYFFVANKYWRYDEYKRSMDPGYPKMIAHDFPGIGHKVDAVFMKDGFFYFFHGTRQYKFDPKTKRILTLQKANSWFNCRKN
It is filed as tissue-based, Rheumatoid synovial fibroblasts.

Sequence of Cytochrome P450 2C19 (P33261 whole entry): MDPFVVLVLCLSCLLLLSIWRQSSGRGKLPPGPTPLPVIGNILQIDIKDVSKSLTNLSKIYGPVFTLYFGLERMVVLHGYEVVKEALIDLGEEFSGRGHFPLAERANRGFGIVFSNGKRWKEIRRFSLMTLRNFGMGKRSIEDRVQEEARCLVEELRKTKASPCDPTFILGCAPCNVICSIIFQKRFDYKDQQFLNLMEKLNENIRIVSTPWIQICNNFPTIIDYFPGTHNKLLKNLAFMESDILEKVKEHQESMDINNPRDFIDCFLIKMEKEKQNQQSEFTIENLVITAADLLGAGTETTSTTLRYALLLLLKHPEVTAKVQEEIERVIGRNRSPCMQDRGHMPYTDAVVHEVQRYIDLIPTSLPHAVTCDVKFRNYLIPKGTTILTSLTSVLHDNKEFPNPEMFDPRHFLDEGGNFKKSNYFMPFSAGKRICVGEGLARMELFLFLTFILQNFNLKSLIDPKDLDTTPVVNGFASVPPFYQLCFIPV
Sequence of 5-hydroxytryptamine receptor 1B (P28564 whole entry): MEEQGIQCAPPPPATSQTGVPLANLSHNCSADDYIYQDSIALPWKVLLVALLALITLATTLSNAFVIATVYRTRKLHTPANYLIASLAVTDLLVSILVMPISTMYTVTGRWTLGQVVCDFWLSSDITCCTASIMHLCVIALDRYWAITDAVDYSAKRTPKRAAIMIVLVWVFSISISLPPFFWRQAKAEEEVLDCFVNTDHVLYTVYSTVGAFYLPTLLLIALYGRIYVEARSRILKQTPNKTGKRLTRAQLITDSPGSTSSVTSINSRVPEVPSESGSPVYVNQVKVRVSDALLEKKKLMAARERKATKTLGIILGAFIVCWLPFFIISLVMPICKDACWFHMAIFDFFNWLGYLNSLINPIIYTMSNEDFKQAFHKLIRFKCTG
Sequence of 5-hydroxytryptamine receptor 2B (P41595 whole entry): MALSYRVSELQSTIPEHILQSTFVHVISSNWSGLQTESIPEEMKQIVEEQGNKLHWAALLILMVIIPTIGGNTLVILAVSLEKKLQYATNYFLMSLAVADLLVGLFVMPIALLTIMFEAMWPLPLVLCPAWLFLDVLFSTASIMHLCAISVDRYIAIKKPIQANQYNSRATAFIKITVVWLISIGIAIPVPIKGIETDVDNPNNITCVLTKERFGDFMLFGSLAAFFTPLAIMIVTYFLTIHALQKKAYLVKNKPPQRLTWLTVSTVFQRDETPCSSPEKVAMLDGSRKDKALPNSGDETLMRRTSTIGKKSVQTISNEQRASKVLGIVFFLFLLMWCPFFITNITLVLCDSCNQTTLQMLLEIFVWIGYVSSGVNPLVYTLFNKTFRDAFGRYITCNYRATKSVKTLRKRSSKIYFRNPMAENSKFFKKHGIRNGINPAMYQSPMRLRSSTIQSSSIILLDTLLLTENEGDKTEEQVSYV

On to `COc1cc(N)nc2[nH]c(-c3ccc(F)cc3)c(-c3ccncc3)c12`, for which the IC50 entry (in data set [1]; in data set [2]; against Cytochrome P450 2C19; in data set [3]; in data set [4]; in data set [5]) was “Not Active” in each case. In addition, the IC50 entry against Interstitial collagenase is listed as “Not Active”. In addition, the Ki entry (at Cytochrome P450 2C19; in data set [4]; in data set [5]) was “Not Active” in each case.

Turning to `CNS(=O)(=O)Cc1ccc2[nH]cc(CCN(C)C)c2c1`, the IC50 entry (in data set [2]; at Cytochrome P450 2C19; in data set [3]; in data set [4]; in data set [5]; at Interstitial collagenase) was “Not Active” in each case. Further, the Ki entry (on Cytochrome P450 2C19; in data set [4]; in data set [5]) was “Not Active” each time.

With `CCCc1nn(C)c2c(=O)[nH]c(-c3cc(S(=O)(=O)N4CCN(C)CC4)ccc3OCC)nc12`, the IC50 entry (in data set [1]; in data set [2]; against Cytochrome P450 2C19; in data set [3]; in data set [4]; in data set [5]) was “Not Active” throughout. Further, the IC50 entry against Interstitial collagenase was “Not Active”. For the same molecule, the Ki entry (on Cytochrome P450 2C19; in data set [4]; in data set [5]) was “Not Active” each time.

As for `COc1ccc(/C=C/C(=O)Nc2ccccc2C(=O)O)cc1OC`, the IC50 entry (in data set [1]; in data set [2]; against Cytochrome P450 2C19; in data set [3]; in data set [4]; in data set [5]) was “Not Active” each time. For the same molecule, on Interstitial collagenase, the IC50 result is recorded as “Not Active”. Moreover, the Ki result (on Cytochrome P450 2C19; in data set [4]; in data set [5]) was “Not Active” in each case.

For the molecule `CCOC(N)=O`, the IC50 result (in data set [1]; in data set [2]; on Cytochrome P450 2C19; in data set [3]; in data set [4]; in data set [5]) was “Not Active” throughout. Also, the IC50 entry against Interstitial collagenase is “Not Active”. Also, the Ki result (at Cytochrome P450 2C19; in data set [4]; in data set [5]) was “Not Active” each time.

With `CC(=O)Nc1nnc(S(N)(=O)=O)s1` [ACETAZOLAMIDE], the IC50 entry (in data set [1]; in data set [2]; at Cytochrome P450 2C19; in data set [3]; on Interstitial collagenase) was “Not Active” each time. Also, the Ki result at Cytochrome P450 2C19 is reported as “Not Active”.

On to `O=c1[nH]c2ccccc2n1CCCN1CCC(n2c(=O)[nH]c3cc(Cl)ccc32)CC1` [DOMPERIDONE], for which the IC50 entry (in data set [1]; in data set [2]; on Interstitial collagenase) was “Not Active” each time.

For the molecule `CC1=C(CC(=O)O)c2cc(F)ccc2/C1=C\c1ccc(S(C)(=O)=O)cc1` [EXISULIND], the IC50 entry (in data set [1]; in data set [2]; against Cytochrome P450 2C19; in data set [3]; in data set [4]; in data set [5]) was “Not Active” throughout. Also, at Interstitial collagenase, the IC50 entry is listed as “Not Active”. In addition, the Ki result (on Cytochrome P450 2C19; in data set [4]; in data set [5]) was “Not Active” throughout.

Take `CC(C)OC(=O)C(C)(C)Oc1ccc(C(=O)c2ccc(Cl)cc2)cc1` [FENOFIBRATE]: the IC50 entry (in data set [1]; in data set [2]; against Cytochrome P450 2C19; in data set [3]; on Interstitial collagenase) was “Not Active” each time. On Cytochrome P450 2C19, the Ki entry is on record as “Not Active”.

On to `OCCN1CCN(CCCN2c3ccccc3Sc3ccc(C(F)(F)F)cc32)CC1` [FLUPHENAZINE], for which the pIC50 is 5.72 in data set [1] and 7.41 in data set [3] (read-out: IC50). Besides, the values for the pKi in data set [1] and in data set [3] (read-out: Ki) were 6.06 and 7.60, respectively. Besides, the IC50 result (in data set [2]; against Interstitial collagenase) was “Not Active” each time.

As for `CN1C2CCCC1CC(NC(=O)c1nn(C)c3ccccc13)C2` (stereo not drawn) [GRANISETRON], the IC50 entry (in data set [1]; in data set [2]; on Cytochrome P450 2C19; in data set [3]; against Interstitial collagenase) was “Not Active” throughout. Besides, the Ki entry at Cytochrome P450 2C19 was “Not Active”.

As for `Nc1nc2c(c(=O)[nH]1)N(C=O)C(CNc1ccc(C(=O)N[C@@H](CCC(=O)O)C(=O)O)cc1)CN2` (stereo partly drawn) [LEUCOVORIN], the IC50 entry (in data set [1]; in data set [2]; on Cytochrome P450 2C19; in data set [3]; in data set [4]; in data set [5]) was “Not Active” throughout. Moreover, the IC50 entry against Interstitial collagenase is “Not Active”. Further, the Ki result (on Cytochrome P450 2C19; in data set [4]; in data set [5]) was “Not Active” throughout.

Take `CC[C@@H](CO)NC(=O)[C@@H]1C=C2c3cccc4c3c(cn4C)C[C@H]2N(C)C1` [METHYSERGIDE]: in data set [1], the pIC50 is 6.75 and the pKi was 6.97. The IC50 result in data set [2] is on record as “Not Active”. On Cytochrome P450 2C19, the IC50 result is listed as “Not Active” and the Ki entry is given as “Not Active”. Besides, the IC50 entry at Interstitial collagenase is recorded as “Not Active”.

For the molecule `CCN(CC)CC#CCOC(=O)C(O)(c1ccccc1)C1CCCCC1` (stereo not drawn) [OXYBUTYNIN], the IC50 result (in data set [1]; against Interstitial collagenase) was “Not Active” each time.

Consider `C=C(C)[C@H]1Cc2c(ccc3c2O[C@@H]2COc4cc(OC)c(OC)cc4[C@@H]2C3=O)O1` [ROTENONE], for which the IC50 result (in data set [1]; in data set [2]; in data set [3]; in data set [4]; in data set [5]; at Interstitial collagenase) was “Not Active” throughout. Besides, the Ki result in data set [4] and in data set [5] was “Not Active” throughout.

For `C#CCN(C)[C@H](C)Cc1ccccc1` [SELEGILINE], the IC50 result (in data set [1]; in data set [2]; in data set [3]; in data set [4]; in data set [5]; against Interstitial collagenase) was “Not Active” throughout. Moreover, the Ki result in data set [4] and in data set [5] was “Not Active” in each case.

As for `CO[C@H]1C[C@@H]2CC[C@@H](C)[C@@](O)(O2)C(=O)C(=O)N2CCCC[C@H]2C(=O)O[C@H]([C@H](C)C[C@@H]2CC[C@@H](O)[C@H](OC)C2)CC(=O)[C@H](C)/C=C(\C)[C@@H](O)[C@@H](OC)C(=O)[C@H](C)C[C@H](C)/C=C/C=C/C=C/1C` [SIROLIMUS], the IC50 result (in data set [1]; in data set [2]; in data set [3]; in data set [4]; at Interstitial collagenase) was “Not Active” each time. In data set [4], the Ki result is on record as “Not Active”. Also, in data set [5] (read-out: IC50), the pIC50 was 5.96. For the same molecule, the pKi in data set [5] (read-out: Ki) was 6.43.

Regarding `CN[C@@H]1[C@H](O)[C@H](NC)[C@H]2O[C@@]3(O)C(=O)C[C@@H](C)O[C@H]3O[C@@H]2[C@H]1O` [SPECTINOMYCIN], the IC50 entry (in data set [1]; in data set [2]; in data set [3]; in data set [4]; in data set [5]; against Interstitial collagenase) was “Not Active” in each case. For the same molecule, the Ki result in data set [4] and in data set [5] was “Not Active” throughout.

As to `CCS(=O)(=O)CCn1c([N+](=O)[O-])cnc1C` [TINIDAZOLE], the IC50 entry (in data set [1]; in data set [2]; in data set [3]; in data set [4]; in data set [5]; against Interstitial collagenase) was “Not Active” each time. For the same molecule, the Ki result in data set [4] and in data set [5] was “Not Active” each time.

With `O=c1n(CCCN2CCN(c3cccc(Cl)c3)CC2)nc2ccccn12` [TRAZODONE], in data set [1], the pIC50 was 5.87 and the negative logarithm of the Ki (pKi) is 6.08. In data set [2], the IC50 entry is given as “Not Active”. At Cytochrome P450 2C19, the IC50 entry was “Not Active” and the Ki entry is recorded as “Not Active”. Moreover, the IC50 entry against Interstitial collagenase is “Not Active”.

For the molecule `COc1ccc(CN2CCNCC2)c(OC)c1OC` [TRIMETAZIDINE], the IC50 entry (in data set [1]; in data set [2]; in data set [3]; in data set [4]; in data set [5]; at Interstitial collagenase) was “Not Active” throughout. For the same molecule, the Ki result in data set [4] and in data set [5] was “Not Active” throughout.
